# What was measured:
# HGGX42 = H3.3 G34R paediatric high-grade glioma line; assay: maximal growth inhibition (yFin) relative to DMSO / staurosporine; higher = more efficacious
# Procedure, shortened: (§1)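 Patient-derived pHGG/DIPG cell lines and astrocyte controls were plated in 384-well plates coated with 1% Geltrex and dosed by pin tool with a 10-point threefold dilution series (mean top concentration 35 μM), in triplicate. Cells were exposed for 7 days (3 days for iAstro) at 37 °C and 5% CO2. CellTiter-Glo luminescence was log2-transformed, normalised per plate to % activity between negative (solvent) and positive control wells, and pooled. EC50 and maximal response (yFin) were taken from whichever three- or four-parameter log-logistic fit had the lowest AICc.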
# DIPGX29 = H3.3 K27M diffuse intrinsic pontine glioma line; assay: as above
# Procedure, shortened: as §1
# HGGX2 = paediatric high-grade glioma line; assay: as above
# Procedure, shortened: as §1
# SUDIPGXXI = diffuse intrinsic pontine glioma line; assay: as above
# Procedure, shortened: as §1
# HABS = astrocyte control; assay: as above
# Procedure, shortened: as §1
# SUDIPGXIX = diffuse intrinsic pontine glioma line; assay: as above
# Procedure, shortened: as §1
# HGGX6 = H3.3 G34R paediatric high-grade glioma line; assay: as above
# Procedure, shortened: as §1
# SUDIPGIV = diffuse intrinsic pontine glioma line; assay: as above
# Procedure, shortened: as §1
# HGGX39 = paediatric high-grade glioma line; assay: as above
# Procedure, shortened: as §1
# SUDIPGXIII = diffuse intrinsic pontine glioma line; assay: as above
# Procedure, shortened: as §1
# DIPGX37 [1] = H3.3 K27M diffuse intrinsic pontine glioma line; assay: as above
# Procedure, shortened: as §1
# iAstro = astrocyte control; assay: as above
# Procedure, shortened: as §1
# DIPGX7 = H3.3 K27M diffuse intrinsic pontine glioma line; assay: as above
# Procedure, shortened: as §1
# SUDIPGXVII = diffuse intrinsic pontine glioma line; assay: as above
# Procedure, shortened: as §1
# SUDIPGVI = diffuse intrinsic pontine glioma line; assay: as above
# Procedure, shortened: as §1
# DIPGX9 = diffuse intrinsic pontine glioma line; assay: as above
# Procedure, shortened: as §1
# DIPGX37 [2] = assay: EC50 (inflection of fitted growth-inhibition curve) (log10 M)
# Procedure, shortened: as §1
SMILES,maximal growth inhibition (HGGX42) [%],maximal growth inhibition (DIPGX29) [%],maximal growth inhibition (HGGX2) [%],maximal growth inhibition (SUDIPGXXI) [%],maximal growth inhibition (HABS) [%],maximal growth inhibition (SUDIPGXIX) [%],maximal growth inhibition (HGGX6) [%],maximal growth inhibition (SUDIPGIV) [%],maximal growth inhibition (HGGX39) [%],maximal growth inhibition (SUDIPGXIII) [%],maximal growth inhibition (DIPGX37 [1]) [%],maximal growth inhibition (iAstro) [%],maximal growth inhibition (DIPGX7) [%],maximal growth inhibition (SUDIPGXVII) [%],maximal growth inhibition (SUDIPGVI) [%],maximal growth inhibition (DIPGX9) [%],EC50 (log10 M) (DIPGX37 [2])
COC(=O)[C@]12CCC(C)(C)C[C@H]1[C@H]1C(=O)C=C3[C@@]4(C)C=C(C#N)C(=O)C(C)(C)[C@@H]4CC[C@@]3(C)[C@]1(C)CC2 [BARDOXOLONE METHYL],111,87.1,104,103,105,124,86.8,122,92.1,97,88.6,96.5,112,109,96.1,107,-6.09
CC(C)(C)OC(=O)Nc1ccc(-c2cc(C(=O)NCCCCCCC(=O)NO)no2)cc1 [BML-281],33.3,55.1,64,104,74.1,85.3,52.9,76,84,39,38.1,50,91.7,58.3,71.8,97.6,-5.46
CC(C)C[C@H](NC(=O)[C@H](CCc1ccccc1)NC(=O)CN1CCOCC1)C(=O)N[C@@H](Cc1ccccc1)C(=O)N[C@@H](CC(C)C)C(=O)[C@@]1(C)CO1 [CARFILZOMIB],77,96.2,97.2,–,108,116,91.3,98.6,107,105,98.9,87.1,92,105,95.3,115,-6.68
CC(=O)c1ccc2c(c1)c1cc(C(C)=O)ccc1n2CCNC(C)C [CBL-0137],91.8,94.2,83.4,113,74.4,98,88.7,96.8,104,96.5,101,23.8,99.2,97.5,92.3,106,-5.98
O=C(Nc1ccc(Nc2nccc(Nc3cc(C4CCCC4)[nH]n3)n2)cc1)Nc1cccc(C(F)(F)F)c1 [CD532],102,94.4,111,109,122,112,87.6,112,104,103,98.2,95.2,112,100,111,115,-6.42
NC1CCC(Nc2cc(-c3cccc(NCc4cccc(F)c4)n3)c(Cl)cn2)CC1 (stereo not given) [CDK9-IN-2],76.7,71.8,95.4,95.9,98.5,86.9,67.1,88.1,99.7,94.9,77.5,85.7,90.4,87,71.3,88.7,-6.76
C[C@@H](Oc1cc(-c2cnn(C3CCNCC3)c2)cnc1N)c1c(Cl)ccc(F)c1Cl [CRIZOTINIB],102,104,97.4,119,90.9,99.6,88.6,98.4,92.8,92.3,102,87.3,104,96.4,94.1,101,-4.84
COc1ccc(-c2nc(N3CCOCC3)c3sc(CN(C)c4ncc(C(=O)NO)cn4)cc3n2)cn1 [CUDC-907],105,106,103,122,129,119,102,113,112,109,119,73.6,97.5,107,98,108,-6.78
CN1CCCN(C(=O)c2cccc(-c3ccc(/C=C4/C(=O)Nc5ccc(Cl)cc54)o3)c2)CC1 [CX-6258],106,112,108,106,112,110,106,107,110,104,109,102,110,110,108,108,-5.76
CCCc1cc(C)[nH]c(=O)c1CNC(=O)c1cc(-c2ccnc(N3CCN(C)CC3)c2)cc2c1cnn2C(C)C [GSK343],115,120,113,126,69,125,111,74.3,20.4,87.9,122,66.2,114,–,112,123,-4.59
COc1ncc(-c2ccc3nccc(-c4ccnnc4)c3c2)cc1NS(=O)(=O)c1ccc(F)cc1F [OMIPALISIB],99.4,105,105,118,101,108,110,110,115,108,116,41.1,–,111,112,104,-6.38
CCOc1cc(C(C)(C)C)ccc1C1=N[C@@](C)(c2ccc(Cl)cc2)[C@@](C)(c2ccc(Cl)cc2)N1C(=O)N1CCN(CCCS(C)(=O)=O)CC1 [RG7112],94.2,93.2,101,115,108,113,86.4,55.8,96.2,61.6,–,82.6,70.5,102,35.2,109,–
C=CCNC1=C2C[C@@H](C)C[C@H](OC)[C@H](O)[C@@H](C)/C=C(\C)[C@H](OC(N)=O)[C@@H](OC)/C=C\C=C(/C)C(=O)NC(=CC1=O)C2=O [TANESPIMYCIN],50.5,70,84.8,122,114,92.1,33.9,72.4,97.3,73.1,104,39.3,–,74.7,39.8,108,-6.99

# From the supplement of paper PMC8253809
